Assay results published in US8658604B2, “Template-fixed beta-hairpin peptidomimetics with protease inhibitory activity” (Polyphor Ltd, priority 2005, dated 2014).
Where a SMILES comes first, the peptide text is derived from it.

What was measured:
[1] = target: Trypsin, from human pancreas (Homo sapiens, UniProt P07477); assay: Enzymatic assay, trypsin
[2] = target: T1, Elastase from human neutrophils (Homo sapiens, UniProt P08246); assay: Enzymatic assay, elastase; settings: for IC50: Elastase IC50
T1 sequence (P08246 30-267): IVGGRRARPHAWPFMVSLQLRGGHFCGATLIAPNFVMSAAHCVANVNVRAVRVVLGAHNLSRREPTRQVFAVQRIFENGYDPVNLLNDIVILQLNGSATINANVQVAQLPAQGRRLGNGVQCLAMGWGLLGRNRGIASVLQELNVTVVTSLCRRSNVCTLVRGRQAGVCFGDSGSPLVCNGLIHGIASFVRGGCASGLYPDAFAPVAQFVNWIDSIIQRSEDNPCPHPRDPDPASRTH

[3] = test system: Tryptase, from human lung; assay: Enzymatic assay, tryptase
[4] = target: Chymotrypsin, from human pancreas (Homo sapiens, UniProt P17538); assay: Enzymatic assay, chymotrypsin
Chymase, from human skin = target: T2, Chymase, from human skin (Homo sapiens, UniProt P23946); assay: Enzymatic assay, chymase
T2 sequence (P23946 22-247): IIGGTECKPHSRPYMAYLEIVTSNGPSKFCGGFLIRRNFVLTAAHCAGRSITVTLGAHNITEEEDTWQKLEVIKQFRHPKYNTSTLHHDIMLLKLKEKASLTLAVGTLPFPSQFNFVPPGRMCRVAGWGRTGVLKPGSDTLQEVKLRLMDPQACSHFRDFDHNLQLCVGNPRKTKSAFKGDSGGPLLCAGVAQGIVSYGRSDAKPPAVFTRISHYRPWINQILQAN

[5] = target: T3, CathepsinG, from human neutrophils (Homo sapiens, UniProt P08311); assay: Enzymatic assay, cathepsin G; settings: Cathepsin G IC50
T3 sequence (P08311 21-244): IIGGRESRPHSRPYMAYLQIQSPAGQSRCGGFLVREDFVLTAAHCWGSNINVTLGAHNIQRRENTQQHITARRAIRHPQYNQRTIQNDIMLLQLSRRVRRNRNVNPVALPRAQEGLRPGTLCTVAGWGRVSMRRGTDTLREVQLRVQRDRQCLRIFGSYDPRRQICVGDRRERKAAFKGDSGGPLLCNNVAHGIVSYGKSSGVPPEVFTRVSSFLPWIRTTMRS

Chain of Chymotrypsin, from human pancreas (P17538 19-263): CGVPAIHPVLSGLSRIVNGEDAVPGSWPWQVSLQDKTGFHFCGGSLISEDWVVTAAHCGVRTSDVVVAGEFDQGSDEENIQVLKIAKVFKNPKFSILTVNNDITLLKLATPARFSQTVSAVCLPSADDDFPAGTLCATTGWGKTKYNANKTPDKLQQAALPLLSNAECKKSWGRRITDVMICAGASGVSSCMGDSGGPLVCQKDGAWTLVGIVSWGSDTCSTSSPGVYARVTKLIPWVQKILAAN

Structure (SMILES)	IC50 [2]	Tryptase At 100 μM % ([3]; at 100 μM)	Chymotrypsin at 100 μM % [4]	Trypsin at 100 μM % [1]	IC50 [5]	other results
CCCC[C@@H]1NC(=O)[C@@H]2CCCN2C(=O)[C@H]2CCCN2C(=O)[C@H](Cc2ccc(O)cc2)NC(=O)[C@@H]2CSSC[C@H](NC1=O)C(=O)N[C@@H]([C@@H](C)O)C(=O)N[C@@H](C)C(=O)N[C@@H](CO)C(=O)N[C@@H]([C@@H](C)CC)C(=O)N1CCC[C@H]1C(=O)N1CCC[C@H]1C(=O)N[C@@H](CCC(N)=O)C(=O)N2 [Ex. 179] (HELM PEPTIDE1{[Nle].C.T.A.S.I.P.P.Q.C.Y.[dP].P}$PEPTIDE1,PEPTIDE1,2:R3-10:R3|PEPTIDE1,PEPTIDE1,1:R1-13:R2$$$V2.0)	50 nM	0%	76.0%			IC50 [1]: > 100000 nM
CCCC[C@@H]1NC(=O)[C@@H]2CCCN2C(=O)[C@H]2CCCN2C(=O)[C@H](Cc2ccc(O)cc2)NC(=O)[C@@H]2CSSC[C@H](NC1=O)C(=O)N[C@@H]([C@@H](C)O)C(=O)N[C@@H](C)C(=O)N[C@@H](CO)C(=O)N[C@@H](C1CCCCC1)C(=O)N1CCC[C@H]1C(=O)N1CCC[C@H]1C(=O)N[C@@H](CCC(N)=O)C(=O)N2 [Ex. 140] (HELM PEPTIDE1{[Nle].C.T.A.S.[O=C([C@@H](N[*:1])C1CCCCC1)[*:2]].P.P.Q.C.Y.[dP].P}$PEPTIDE1,PEPTIDE1,2:R3-10:R3|PEPTIDE1,PEPTIDE1,1:R1-13:R2$$$V2.0)		4.2%	79.6%			
CCCC[C@@H]1NC(=O)[C@@H]2CCCN2C(=O)[C@H]2CCCN2C(=O)[C@H](Cc2ccccc2)NC(=O)[C@@H]2CSSC[C@H](NC1=O)C(=O)N[C@@H]([C@@H](C)O)C(=O)N[C@@H](C)C(=O)N[C@@H](CO)C(=O)N[C@@H]([C@@H](C)CC)C(=O)N1CCC[C@H]1C(=O)N1CCC[C@H]1C(=O)N[C@@H](CCC(N)=O)C(=O)N2 [Ex. 137] (HELM PEPTIDE1{[Nle].C.T.A.S.I.P.P.Q.C.F.[dP].P}$PEPTIDE1,PEPTIDE1,2:R3-10:R3|PEPTIDE1,PEPTIDE1,1:R1-13:R2$$$V2.0)		5%	68.7%			
CCCC[C@@H]1NC(=O)[C@H](Cc2ccccc2)NC(=O)[C@H]2CCCN2C(=O)[C@H](Cc2ccc(O)cc2)NC(=O)[C@@H]2CSSC[C@H](NC1=O)C(=O)N[C@@H]([C@@H](C)O)C(=O)N[C@@H](C)C(=O)N[C@@H](CO)C(=O)N[C@@H]([C@@H](C)CC)C(=O)N1CCC[C@H]1C(=O)N1CCC[C@H]1C(=O)N[C@@H](CCC(N)=O)C(=O)N2 [compound 167] (HELM PEPTIDE1{[Nle].C.T.A.S.I.P.P.Q.C.Y.[dP].F}$PEPTIDE1,PEPTIDE1,2:R3-10:R3|PEPTIDE1,PEPTIDE1,1:R1-13:R2$$$V2.0)		0.2%	60.2%			
CC[C@H](C)[C@@H]1NC(=O)[C@@H]2CCCN2C(=O)[C@@H]2CCCN2C(=O)[C@H](CC(=O)O)NC(=O)[C@H](CN)NC(=O)[C@H](CCCCN)NC(=O)[C@H]([C@@H](C)O)NC(=O)[C@@H]2CSSC[C@H](NC1=O)C(=O)N[C@@H](CO)C(=O)N1CCC[C@@H]1C(=O)N1CCC[C@H]1C(=O)N[C@@H](Cc1ccccc1)C(=O)N2 [Ex. 25] (HELM PEPTIDE1{F.C.T.K.[NC[C@H](N[*:1])C(=O)[*:2]].D.P.P.I.C.S.[dP].P}$PEPTIDE1,PEPTIDE1,2:R3-10:R3|PEPTIDE1,PEPTIDE1,1:R1-13:R2$$$V2.0)				89.3%	102 nM	Chymase at 100 μM % (Chymase, from human skin): 10.0%; Elastase at 100 μM % ([2]; at 100 μM (stated in cell instead of IC50)): 3.2 at %
CCCC[C@@H]1NC(=O)[C@@H]2CCCN2C(=O)[C@H]2CCCN2C(=O)[C@H](Cc2ccc(O)cc2)NC(=O)[C@@H]2CSSC[C@H](NC1=O)C(=O)N[C@@H]([C@@H](C)O)C(=O)N[C@@H](C)C(=O)N[C@@H](CO)C(=O)N[C@@H](CC1CCCCC1)C(=O)N1CCC[C@H]1C(=O)N1CCC[C@H]1C(=O)N[C@@H](CCC(N)=O)C(=O)N2 [Ex. 82] (HELM PEPTIDE1{[Nle].C.T.A.S.[Cha].P.P.Q.C.Y.[dP].P}$PEPTIDE1,PEPTIDE1,2:R3-10:R3|PEPTIDE1,PEPTIDE1,1:R1-13:R2$$$V2.0)	18 nM					Tryptase at 100 μM % ([3]; at 100 μM): 44.5%; IC50 [4]: 72.9 nM
CCCC[C@@H]1NC(=O)[C@@H]2CCCN2C(=O)[C@H]2CCCN2C(=O)[C@H](c2ccccc2)NC(=O)[C@@H]2CSSC[C@H](NC1=O)C(=O)N[C@@H]([C@@H](C)O)C(=O)N[C@@H](C)C(=O)N[C@@H](CO)C(=O)N[C@@H]([C@@H](C)CC)C(=O)N1CCC[C@H]1C(=O)N1CCC[C@H]1C(=O)N[C@@H](CCC(N)=O)C(=O)N2 [Ex. 136] (HELM PEPTIDE1{[Nle].C.T.A.S.I.P.P.Q.C.[Phg].[dP].P}$PEPTIDE1,PEPTIDE1,2:R3-10:R3|PEPTIDE1,PEPTIDE1,1:R1-13:R2$$$V2.0)		0%	67.9%			
CC[C@@H](C)[C@H]1NC(=O)[C@H](CO)NC(=O)[C@@H]2CSSC[C@H](NC(=O)[C@H](Cc3ccccc3)NC(=O)[C@@H]3CCCN3C1=O)C(=O)N[C@@H]([C@@H](C)O)C(=O)N[C@@H](CCCCN)C(=O)N[C@@H](CO)C(=O)N[C@@H](CC(=O)O)C(=O)N1CCC[C@H]1C(=O)N1CCC[C@H]1C(=O)N[C@@H]([C@@H](C)CC)C(=O)N2 [Ex. 50] (HELM PEPTIDE1{F.C.T.K.S.D.P.P.I.C.S.[dI].P}$PEPTIDE1,PEPTIDE1,2:R3-10:R3|PEPTIDE1,PEPTIDE1,1:R1-13:R2$$$V2.0)	> 100000 nM		0%	94%	89 nM	
CCCC[C@@H]1NC(=O)[C@H](CC(=O)O)NC(=O)[C@H]2CCCN2C(=O)[C@H](Cc2ccc(O)cc2)NC(=O)[C@@H]2CSSC[C@H](NC1=O)C(=O)N[C@@H]([C@@H](C)O)C(=O)N[C@@H](C)C(=O)N[C@@H](CO)C(=O)N[C@@H]([C@@H](C)CC)C(=O)N1CCC[C@H]1C(=O)N1CCC[C@H]1C(=O)N[C@@H](CCC(N)=O)C(=O)N2 [Ex. 168] (HELM PEPTIDE1{[Nle].C.T.A.S.I.P.P.Q.C.Y.[dP].D}$PEPTIDE1,PEPTIDE1,2:R3-10:R3|PEPTIDE1,PEPTIDE1,1:R1-13:R2$$$V2.0)		4.6%	72.9%			
CC[C@H](C)[C@@H]1NC(=O)[C@@H]2CCCN2C(=O)[C@@H]2CCCN2C(=O)[C@H](CC(=O)O)NC(=O)[C@H](CO)NC(=O)[C@H](CCCCN)NC(=O)[C@H]([C@@H](C)O)NC(=O)[C@@H]2CSSC[C@H](NC1=O)C(=O)N[C@@H](CO)C(=O)N1CCC[C@@H]1C(=O)N1[C@@H](c3ccccc3)CC[C@H]1C(=O)N[C@@H](Cc1ccccc1)C(=O)N2 [Ex. 48] (HELM PEPTIDE1{C.S.[dP].[O=C([C@@H]1CC[C@H](c2ccccc2)N1[*:1])[*:2]].F.C.T.K.S.D.P.P.I}$PEPTIDE1,PEPTIDE1,1:R3-6:R3|PEPTIDE1,PEPTIDE1,1:R1-13:R2$$$V2.0)	> 100000 nM		3%	93%	83 nM	
CCCC[C@@H]1NC(=O)[C@@H]2CCCN2C(=O)[C@@H](Cc2ccccc2)NC(=O)[C@H](Cc2ccc(O)cc2)NC(=O)[C@@H]2CSSC[C@H](NC1=O)C(=O)N[C@@H]([C@@H](C)O)C(=O)N[C@@H](C)C(=O)N[C@@H](CO)C(=O)N[C@@H]([C@@H](C)CC)C(=O)N1CCC[C@H]1C(=O)N1CCC[C@H]1C(=O)N[C@@H](CCC(N)=O)C(=O)N2 [Ex. 116] (HELM PEPTIDE1{A.S.I.P.P.Q.C.Y.[dF].P.[Nle].C.T}$PEPTIDE1,PEPTIDE1,7:R3-12:R3|PEPTIDE1,PEPTIDE1,1:R1-13:R2$$$V2.0)	46 nM			0%		IC50 [4]: 39700 nM
CC[C@H](C)[C@@H]1NC(=O)[C@@H]2CCCN2C(=O)[C@H]2CCCN2C(=O)[C@H](CCCNC(=N)N)NC(=O)[C@@H]2CSSC[C@H](NC1=O)C(=O)N[C@@H]([C@@H](C)O)C(=O)N[C@@H](CCCCN)C(=O)N[C@@H](CO)C(=O)N[C@@H](CC(C)C)C(=O)N1CCC[C@H]1C(=O)N1CCC[C@H]1C(=O)N[C@@H]([C@@H](C)CC)C(=O)N2 [Ex. 180] (HELM PEPTIDE1{I.C.T.K.S.L.P.P.I.C.R.[dP].P}$PEPTIDE1,PEPTIDE1,2:R3-10:R3|PEPTIDE1,PEPTIDE1,1:R1-13:R2$$$V2.0)					120 nM	IC50 [1]: 60 nM; IC50 ([3]; read-out: Tryptase IC50): < 100 nM
